Data on five molecules can be found in patent US12691115B2, “Methods for treatment of obesity, atherosclerosis, and thrombosis” (Marshall University Research Corporation, priority 2019, dated 2026).

For series [1] the following is noted: cited from earlier work.
Series [2] relates to platelets. As to conditions: cited from earlier work.
In series [3] the test system is WT mice. The series is described as follows: 7.5% FeCl3 induced carotid artery thrombosis model, drug given before injury. The series is classed as in vivo, mouse. The note with it: for lowest effective dose with significant antithrombotic effect: gavage for one week; for lowest dose in inhibiting mouse thrombosis: in vivo. The protocol:
(§1) Murine carotid artery thrombosis model and tail bleeding assay. Detailed ferric chloride (FeCl3) induced carotid artery thrombosis model has been described before. […] The endpoints were set as follows: 1) blood flow has ceased for >30 seconds; or 2) occlusion is not seen after 30 minutes of FeCl3 injury. […] In some experiments, a jugular vein catheter prepared with P-10 tubing was placed for drug administration after 5 minutes of thrombus initiation. Thrombus formation was continually monitored using the endpoints mentioned above. Tail bleeding assay was either conducted on mice immediately after the thrombosis study or on mice that were not used for the in vivo thrombosis study. […] Tail bleeding assay was conducted on these mice immediately after the thrombosis study.

Series [4] concerns WT mice. The note with it: mouse, in vivo; for mice considered to have bleeding side effects: male, 1 week. Here is the method:
as §1

The conditions of series [5]: as component of Lonsurf (TAS-102); no systemic bleeding observed; cited from earlier work.
The next series has as its system C57Bl6 wild type mice. The series is described as follows: Western diet induced body weight gain. The series is classed as in vivo, mouse. The note with it: gavage 1 mg/kg/day, western diet TD.88137, vs saline, hydrochloride. An excerpt: To determine if inhibition of TYMP could attenuate or inhibit obesity in vivo, C57Bl6 wild type mice were fed with a western diet (TD.88137, 42% calories from fat), started from 6 to 8 […], to facilitate their weight gain. […] Mice received the same volume of saline feeding as a control. Body weight gain was monitored weekly, and data were presented as mean of the accumulated weight gain from each mice at each week. N=3 in the saline-feeding group, and 2 in the TPI-feeding group.

For series [6], the system named is platelets. The series is described as follows: Cellix flow chamber-based platelet adhesion and aggregation assay. Type of series: cell-based, mouse. The protocol: Cellix flow chamber-based platelet adhesion and aggregation assay. Cellix flow chambers were coated with collagen 10 μg/mL in PBS. Whole blood was drawn from mouse IVC using 0.109 M sodium citrate as an anticoagulant, stained with Rhodamine 6G, and then used for the flow chamber mediated adhesion and aggregation assay. Some of the whole blood was treated with or without TPI before it was perfused into the chamber.

For series [7], the system named is WT mice fed a western diet. Briefly: FeCl3 thrombosis model under hyperlipidemia (western diet). Type of series: in vivo, mouse. The note with it: TPI 1 mg/kg for one week, WD 4 weeks. An excerpt: Examination of the effect of TYMP inhibition on thrombosis under hyperlipidemia. WT mice were fed a western diet (WD, TD.88137) for a total of 4 weeks. […] These mice were then subjected to the thrombosis study using the 7.5% FeCl3 induced thrombosis model.

A further series has as its system Apoe^−/− mice. The series is described as follows: Apoe−/− mice on WD gavage fed with TPI: liver fat accumulation and atherosclerotic lesions (Oil Red O). The series is classed as in vivo, mouse. As to conditions: gavage 60 μg/Kg/day, 4 weeks, vs saline. An excerpt: As mentioned above, TYMP enhances platelet activation in vitro and promotes thrombosis in vivo, making TYMP a potential target for antithrombotic therapy. […] Age-matched Apoe^−/− mice on WD fed with saline were used as controls.

The test system of a further series is AKT. The series is described as follows: ADP-induced AKT phosphorylation in platelets (immunoblot). The series is classed as cell-based, mouse. As to conditions: 50 μM TPI, 2.5 μM ADP, especially the second phase. The protocol:
Evaluation of platelet signaling activation. Platelets in PRP were stimulated with 2.5 μM ADP for 0, 1, 3, and 5 minutes, then lysed with radioimmunoprecipitation assay (RIPA) buffer containing proteinase/phosphatase inhibitor cocktail. The lysates were subsequently used for AKT activation immunoblotting assays. ADP-stimulated p-selectin expression was analyzed by flow cytometry.

The target of another series is T1, TYMP and Lyn (Homo sapiens, UniProt P19971).
T1 construct: overexpressing full length human TYMP and Lyn in Cos-7 cells; expressed in transfected cells; host or cells: COS-7
T1 sequence (P19971 11-482): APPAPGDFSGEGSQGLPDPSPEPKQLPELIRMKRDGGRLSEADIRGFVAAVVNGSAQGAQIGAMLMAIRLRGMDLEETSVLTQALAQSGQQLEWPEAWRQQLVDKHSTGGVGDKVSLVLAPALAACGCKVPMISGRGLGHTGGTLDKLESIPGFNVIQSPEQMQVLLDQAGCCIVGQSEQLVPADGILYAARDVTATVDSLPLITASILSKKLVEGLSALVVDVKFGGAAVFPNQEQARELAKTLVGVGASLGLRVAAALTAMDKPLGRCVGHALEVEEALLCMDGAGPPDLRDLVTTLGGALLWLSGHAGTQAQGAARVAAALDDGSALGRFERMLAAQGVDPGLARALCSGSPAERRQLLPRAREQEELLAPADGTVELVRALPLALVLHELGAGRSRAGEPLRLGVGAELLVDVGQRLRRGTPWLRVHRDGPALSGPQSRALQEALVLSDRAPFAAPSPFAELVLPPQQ
The series is described as follows: Association of TYMP and Lyn (pull-down, Cos-7 cells). The series is classed as binding. The note with it: TPI treatment. The source says: Generation of fusion proteins to determine that TYMP binds to LYN through the SH3 binding domain. Human SH3 domain nucleotides (hLynSH3, amino acids 63-123) were amplified by PCR and cloned into a mammalian expression vector pEBG (Addgene, plasmid #22227) with an N-terminal glutathione S-transferase (GST) affinity tag (pEBG-GST-hLynSH3). A pCDNA6B/his-hTYMP plasmid vector was previously constructed. pEBG-GST-hLynSH3 and pCDNA6B/his-hTYMP plasmids were co-transfected into COS-7 cells, lysed in a Pierce™ IP Lysis Buffer (ThermoFisher Scientific), and used for GST pull down assay. Eluates were used for Western blot assay to confirm the presence of TYMP.
pEGFP-N1-human Lyn-GFP and pCDNA6B/his-hTYMP plasmids were also co-transfected into the COS-7 cells. TYMP was pulled down using immobilized Ni-NTA on magnetic sepharose beads (GE Healthcare Life Sciences) for His-tagged protein purification. His-hTYMP eluates were used for western blot assay for Lyn.

Series [8] concerns WT mice. Briefly: FeCl3 thrombosis model, bolus injection via jugular vein catheter 5 minutes after thrombus initiation. The series is classed as in vivo, mouse. Here is the method:
Murine carotid artery thrombosis model and tail bleeding assay. Detailed ferric chloride (FeCl3) induced carotid artery thrombosis model has been described before. Vessel injury was induced by 7.5% FeCl3 solution to the carotid artery for 1 minute. […] The endpoints were set as follows: 1) blood flow has ceased for >30 seconds; or 2) occlusion is not seen after 30 minutes of FeCl3 injury. In this case, 30 minutes was assigned to that mouse for the statistical analysis. In some experiments, a jugular vein catheter prepared with P-10 tubing was placed for drug administration after 5 minutes of thrombus initiation. Thrombus formation was continually monitored using the endpoints mentioned above. Tail bleeding assay was either conducted on mice immediately after the thrombosis study or on mice that were not used for the in vivo thrombosis study.

A further series deals with platelets in PRP. Briefly: Mouse platelet aggregation assay (PRP). The series is classed as cell-based. The source says: Mouse platelet aggregation assay. […] Platelet-rich plasma (PRP) was used for platelet aggregation assay. […] Same volume of vehicle (DMSO or saline)-treated platelets was used as controls.
Where [9] appears, read: bolus 17 and 1 mg/kg TPI, 5 min after injury.

Entries after “also recorded” stand apart in the source; their conditions may differ. Structures can show the parent of a compound that is named as a salt.

Turning to `Oc1ncnc2c1ncn2[C@@H]1O[C@H](COC(c2ccccc2)(c2ccccc2)c2ccccc2)[C@@H](O)[C@H]1O` [KIN59, 5′-O-tritylinosine], in series [1], the thrombosis in vivo result was “dramatically inhibited”. Moreover, in the series with platelets [2], the “platelet activation in vitro” value is reported as “dramatically inhibited”.
Consider `CC(=O)Oc1ccccc1C(=O)O` [aspirin], for which, in the series on WT mice [3] (gavage aspirin 0.5 mg/kg/day for 7 days), the inhibiting thrombosis result is “no effect”. For the same molecule, in the series on WT mice [3], the “lowest effective dose with significant antithrombotic effect” value came to 1 mg/kg/day and the “lowest dose in inhibiting mouse thrombosis” value stood at 1 mg/kg. For the same molecule, the “mice considered to have bleeding side effects” value (“mice considered” below) with WT mice [4] turned out to be 50%.
`[H]/N=C1\CCCN1Cc1[nH]c(=O)[nH]c(=O)c1Cl` [TPI, tipiracil hydrochloride]: the “systemic safety in clinical trials” value in [5] is given as “systemically safe”. In addition, the “WD-induced body weight gain” value in the series with C57Bl6 wild type mice is given as “reduced; also recorded: decreases”. The “platelet aggregation to the collagen-coated surface” value with platelets [6] (50 μM TPI, WT whole blood, shear 65 dyn/cm^2, 3 minutes) is “significantly reduced”. The “platelet adhesion to collagen” value in the series on platelets [6] (TYMP inhibition, collagen-coated flow chamber) is listed as “does not affect”. In addition, the hyperlipidemia-enhanced thrombosis entry in [7] was “dramatically reduced”. For the same molecule, in the series on WT mice [3] (gavage 60 μg/kg/day for 3 days), the in vivo thrombosis entry is reported as “significantly inhibited”. The “occlusive thrombus formation in the carotid arteries” value in the series with WT mice [3] (intraperitoneal 17 mg/kg once per day for three days) is “completely inhibited”. The thrombosis entry in the series on WT mice [3] (intravenous injection 1.7 and 0.17 mg/kg, vs saline) is “significantly inhibited”. In addition, in the series with WT mice [3] (without significantly affecting hemostasis), the “effective dose (anti-thrombotic)” value was not above 60 µg/kg/day. Besides, in the series with Apoe^−/− mice, the “atherosclerotic plaque areas formation in aortic root” value is reported as “attenuated” and the “lipid accumulation in livers” value is on record as “attenuated”. Moreover, in the series on AKT, the “ADP-stimulated AKT phosphorylation” value was “dramatically reduced”. In addition, on TYMP and Lyn, the “association of TYMP and Lyn” value is “disrupted”. For the same molecule, the occlusive thrombus formation result with WT mice [8] (TPI 50 μg/kg intravenous injection) is “did not inhibit”. In addition, in the series on WT mice [8] (setting [9]), the blood flow cessation entry is reported as “no blood flow cessation” and the “thrombosis formation (time)” value is given as “significantly prolonged”. Also, the “lowest effective dose on inhibiting the growth of the on-site thrombus” value with WT mice [8] (bolus 5 min after injury) lay within 0.05 to 0.1 mg/kg. In addition, the “ADP-induced aggregation of Tymp−/− platelets” value in the series on platelets in PRP (50 μM TPI, 2.5 μM ADP, Tymp−/− platelets) is given as “had no effect”. Besides, the “ADP-induced WT platelet aggregation” value in the series with platelets in PRP (50 μM TPI, 2.5 μM ADP, WT platelets) is listed as “attenuated”. In addition, in the series on platelets in PRP (50 μM TPI, 2 minutes pretreatment), the CRP-induced platelet aggregation result is “completely blocked”. The collagen-induced platelet aggregation result in the series on platelets in PRP (WT platelets, different concentrations of TPI, collagen 1 μg/ml) is reported as “dose-dependently inhibited”. Besides, the “CRP-induced platelet shape change” value with platelets in PRP (dose-dependently at 250, 125 and 62.5 μM, 0.5 μg/ml CRP) is “inhibited”. Besides, in the series on WT mice [4], the “mice considered” value is given as 28.5% and the “frequency of bleeding compared with clopidogrel-treated mice” value is “significantly decreased”.
On to `COC(=O)[C@H](c1ccccc1Cl)N1CCc2sccc2C1` [clopidogrel], for which, in the series on WT mice [3], the “lowest effective dose with significant antithrombotic effect” value came out at 2.5 mg/kg/day and the “lowest dose in inhibiting mouse thrombosis” value stood at 2.5 mg/kg. Also, the “mice considered” value in the series with WT mice [4] was found to be 75%.
With “tPA: tissue plasminogen activator (Activase), FDA-approved clot-busting drug”, in the series on WT mice [8] (bolus 1 mg/kg, 5 min after vascular injury), the “lysis of established thrombi” value is on record as “effectively lysed”. Further, in the series on WT mice [8] (bolus 5 min after injury), the “lowest effective dose on thrombolysis” value fell in the range of 0.25 to 0.5 mg/kg. The thrombolytic action result with WT mice [8] (tPA 0.25 and 0.125 mg/kg) is recorded as “no thrombolytic action”.
